According to patent US20260297136A1, “PEPTIDES WITH LIPOLYTIC, ANTI-LIPOGENIC, ANTIFIBROTIC AND ANTI-INFLAMMATORY ACTIVITY” (FUNDACIÓ HOSPITAL UNIVERSITARI VALL D'HEBRON - INSTITUT DE …, priority 2023, published 2026):

How the values were obtained:
LX-2 cells = assay: Fibrosis in LX-2 cells: Col1A1 mRNA induced by TGFβ1, Example 7; assay type: cell-based, human; details: 24 h
Protocol: FIG. 33. Effect of different peptides and SHBG on fibrosis in LX-2 cells.
LX-2 human hepatic stellate cells (SCC064) were maintained in DMEM supplemented with 2% fetal bovine serum and antibiotics. For experiments, LX-2 were cultured for 24 h in DMEM 0.2% FBS and treated for 24 h with vehicle or TGFβ1 (20 ng/ml) in the absence or presence of EDL6D (10 or 40 μg/ml). At the end of the experiment's cells were harvested for gene expression analysis.
Total RNA was extracted from HepG2 and LX-2 cells using TRIzol reagent (Invitrogen SA). Reverse transcription was performed at 42° C. for 50 minutes using […] of total RNA, 200 U of Superscript II, and an oligo-dT primer and reagents provided by Invitrogen. An aliquot of the reverse transcription product was amplified in a […] reaction using SYBRGreen (Invitrogen SA) with appropriate oligonucleotide primer pairs corresponding to human SHBG, ACC, FAS, ACLY, PPARG, and 18S and mouse ACC, FAS, ACLY, PPARG, Col1A1 and 18S. Results were analyzed using the 7000 Sequence Detection System program (Applied Biosystems, Thermo Fisher Scientific, Barcelona, Spain) (Shez-Lopez et al Endocrinology 2017).

[1] = system: CCl4-induced fibrosis mouse model; assay: Preventive effects in a CCl4-induced fibrosis mouse model, Example 5; assay type: in vivo, C57BL6/J male mice; details: 20 mg/kg/day sc, vs vehicle
Protocol: C57BL6/J male mice were purchased and kept for quarantine and acclimatization for a period of about 7 days before initiation of every experiment. Mice were housed in clean and sterilized mice cages and maintained in a controlled environment with 22+3° C. temperature, 50+20% humidity, a light/dark cycle of 12 hours each and 15-20 fresh air changes per hour.
Preventive effect of a daily subcutaneous injection of GP6 (20 mg/kg/day) in a mouse model of fibrosis induced by twice a week intraperitoneal injection of CCl4 (1 ml/Kg diluted in olive oil 1:5) during a 4 weeks period. A group of control mice (n=6) was treated with daily subcutaneous injections of vehicle (water) and the other group (n=10) with daily subcutaneous injection of GP6 (20 mg/kg/day) during 10 weeks.
At the end of the experiment mice were sacrificed, serum samples were extracted, tissues were weighted and part was fixed in paraformaldehyde for histology studies and part immediately frozen at −80 C for mRNA and protein expression studies.
The Histology studies, AST and ALT measurements as well the RNA analysis were performed as described in example 4.

**Q.** `CC[C@@H](C)[C@@H](NC(=O)[C@H](NC(=O)CNC(=O)[C@@H](CCC(=O)O)NC(=O)[C@H]1CCCN1C(=O)[C@@H](CC(=O)O)NC(=O)[C@@H](Cc1c[nH]c2ccccc12)NC(=O)[C@H](NC(=O)[C@@H](CCCNC(=N)N)NC(=O)[C@H](NC(=O)[C@@H](CCC(=O)O)NC(=O)[C@@H](Cc1ccccc1)NC(=O)[C@@H](CO)NC(=O)[C@@H](CO)NC(=O)[C@@H](CO)NC(=O)[C@H](NC(=O)[C@@H](CCCCN)NC(=O)[C@H](N)[C@H](C)O)[C@H](C)O)C(C)C)[C@H](C)O)C(C)C)C(=O)N[C@H](Cc1ccccc1)C(=O)N[C@H](Cc1ccc(O)cc1)C(=O)O` [GP6] was tested. Which “mRNA levels of collagen 1A1 induced by TGFβ1” value (LX-2 cells) did it give?
**A.** reduced the mRNA levels

**Q.** What about the liver weight [1] of the same compound?
**A.** did not show any significance between groups

**Q.** And the “reduction of ALT serum levels” value [1]?
**A.** ~50%

**Q.** What about the “reduction of Collagen (Col1A1) expression in hepatic tissue” value [1] of the same compound?
**A.** more than 50%

**Q.** And the “reduction of hepatic fibrosis (picrosirius staining, ImageJ)” value [1]?
**A.** approximately 37%

**Q.** What about the “reduction of hepatic inflammation (F4/80 mRNA levels)” value [1] of the same compound?
**A.** more than 50%

**Q.** And the “total body weight lost induced by CCl4” value [1]?
**A.** mice treated with vehicle lost more body weight when compared with GP6 treated mice
